Measurements reported in US12653803B2, “TREM2 agonists for the stimulation of microglia and methods of identification” (THE TRANSLATIONAL GENOMICS RESEARCH INSTITUTE, priority 2017, dated 2026).
Entries after “also recorded” stand apart in the source; their conditions may differ.

Key:
TREM2/TYROBP = target: T1, TREM2/TYROBP (Homo sapiens, UniProt Q9NZC2); experiment: TREM2/TYROBP/NFAT-Luc luciferase reporter cell line screen (primary screen); format: cell-based; settings: for stimulation of reporter activity in the TREM2 screening cell line: TREM2/TYROBP/NFAT-Luc cells, positive controls: sphingomyelin at increasing concentrations or 120 μg/mL, PMA (1.5 ng/mL)/Ionomycin (375 nM)
T1 construct: stably co-expressing full-length TREM2, full-length TYROBP, and a reporter (e.g., firefly luciferase) driven by NFAT-response elements; expressed in transfected cells; host or cells: BW5147.3 mouse T-lymphocyte cell line, lentiviral transduction (pTYF vectors)
T1 sequence (Q9NZC2 19-230, species assumed): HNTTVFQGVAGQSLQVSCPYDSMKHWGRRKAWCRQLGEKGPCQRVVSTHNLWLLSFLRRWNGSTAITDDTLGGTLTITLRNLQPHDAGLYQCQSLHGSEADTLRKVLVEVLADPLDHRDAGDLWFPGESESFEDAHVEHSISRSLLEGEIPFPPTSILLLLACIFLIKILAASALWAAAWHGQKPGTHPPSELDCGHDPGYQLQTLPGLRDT
T1 sequence (O43914 22-113 partner, species assumed): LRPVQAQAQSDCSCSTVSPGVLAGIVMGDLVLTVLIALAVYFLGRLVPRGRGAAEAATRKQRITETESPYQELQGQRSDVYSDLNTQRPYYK
Excerpt: (§1) Cell-based reporter assays were developed for identifying TREM2 agonists. A mouse T-lymphocyte cell line, BW5147.3, stably co-expressing full-length TREM2, full-length TYROBP, and a reporter (e.g., firefly luciferase) driven by NFAT-response elements, was established (FIG. 2). The parental BW5147.3 cells have no detectable expression of TREM2 or TYROBP (FIG. 4B) and can be used as a counter screen cell-line to identify false positive compounds that stimulate reporter expression independent of TREM2 and TYROBP. BW5147.3 lymphocytes play a central role in the immune system and have high viability (99-100%) in culture.
TREM2 and TYROBP geneArt double-stranded cDNA strings were synthesized (Life Technologies, Carlsbad, CA) and subcloned into pTYF lentiviral vectors to generate a pLenti expression clone. HEK293HT cells were next transfected using Superfect (Qiagen, Venlo, Netherlands), and viral particles were collected and concentrated. Stable expression of TREM2, TYROBP, and the Cignal Lenti NFAT Reporter (Luc) (Qiagen, Venlo, Netherlands) in BW5147.3 cells was accomplished by transduction in opti-MEM media (Life Technologies, Carlsbad, CA) containing 6 μg/ml Polybrene (Sigma-Aldrich, St. Louis, MO). […]
TREM2/TYROBP-NFAT-Luc cell line for HTS was optimized by testing TREM2-stimulated Luc-reporting as a function of growth medium, agonist concentration, induction time, assay duration, and cell density. […] Firefly luciferase levels were measured by chemiluminescence (Bright-Glo™, Promega, WI). […] The effect of reported TREM2 agonists to be served as positive controls were measured (FIG. 5), and the specific stimulation of our reporter through TREM2 by known ligand sphingomyelin was confirmed (FIG. 5).
The primary screening assay was conducted with a concentration of 5 μM for each of the 2,400 compounds (final 0.05% or 0.1% DMSO (v/v)) with two replicate screens with internal replicates. […] Subsequently, Luciferase activity was measured using Bright-Glo™ (Promega, Madison, WI).

NFAT reporter = experiment: BW-NFAT-Luc counter screen (NFAT reporter only, no TREM2/TYROBP); format: cell-based, mouse; settings: for stimulation of the NFAT-Luc reporter-only counter screen cell line: NFAT-Luc cells without TREM2/TYROBP, sphingomyelin (120 μg/mL in counter screen)
Excerpt: as §1
A counter screen cell line only expressing the Cignal Lenti NFAT Reporter (luc) was also created in parallel to the reporter (BW-NFAT-Luc cell line). The BW-NFAT-Luc cell line has the same MOI as the TREM2/TYROBP-NFAT-Luc cell line (MOI=20) but without expression of TREM2 or TYROBP.
Transmembrane signaling via TREM2 is accomplished through an ITAM-bearing trans-membrane adaptor protein, TYROBP or DAP12. TREM2 activation leads to the induction of transcription factor NFAT. Activation of TREM2 by ligands leads to the phosphorylation of TYROBP, the activation of the reporter, and quantitative production of luciferase. Previous studies using TREM2/TYROBP/NFAT reporter cell-lines have confirmed the stimulation of NFAT transcription following TREM2 activation. Compounds that directly stimulate NFAT signaling (stimulate luciferase activity in the BW-NFAT-Luc cell line) are eliminated as false positive. Thus, the counter screen with BW-NFAT-Luc cell line eliminates the false positive hits and confirms hits from TREM2/TYROBP cell lines screened.
To eliminate the false positive hits from the primary screen that might directly stimulate NFAT signaling, a counter screen was performed with the initial 27 compounds using the BW-NFAT-Luc cell line alone. […] The primary screen with the TREM2/TYROBP Luciferase reporter cell line identified Tyrphostin AG 538 as a positive hit with a relative luminescence of 16.08 (FIG. 6A). […]

Row | stimulation of reporter activity in the TREM2 screening cell line (TREM2/TYROBP; listed as sphingomyelin) | relative luminescence (TREM2/TYROBP; primary screen, 5 μM, duplicates, 8 h treatment, TREM2/TYROBP/NFAT-Luc reporter cell line, relative to DMSO vehicle) | Compound | stimulation of reporter activity in the TREM2 screening cell line (TREM2/TYROBP) | stimulation of the NFAT-Luc reporter-only counter screen cell line (NFAT reporter) | stimulation of the NFAT-Luc reporter-only counter screen cell line (NFAT reporter; listed as SM) | direct stimulation of the NFAT reporter in the counter screen (NFAT reporter; NFAT-Luc reporter cell line, 1.5, 3, 6 and 12.5 μM)
1 | induce reporter activity |  | Sphingomyelin | stimulates; also recorded: similarly positive results | did not show direct stimulation of the NFAT reporter | did not show any activity | 
2 |  | 16.08 | N#C/C(=C\c1ccc(O)c(O)c1)C(=O)c1ccc(O)c(O)c1 [Tyrphostin AG 538] |  |  |  | did not stimulate the NFAT reporter directly
